Tests used:
[1] = molecular target: T1, Human neurokinin (NK1) (Homo sapiens, UniProt P25103); test: Radioligand binding, human neurokinin NK1 membranes, filtration, [125I]-Substance P; conditions: compound at 10 μM; for A8 radioligand binding, percentage inhibition / A8: inhibition of radioligand binding, human neurokinin (NK1): [125I]-Substance P
T1 construct: purchased Perkin Elmer Biosignal
Summary of the method: (§1)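 Filtration binding on cloned human receptor membranes (1 Unit/well), [125I]-Substance P for NK1 and [3H]-Diprenorphine for KOP, 1 h at room temperature. Filters PEI-presoaked, washed with cold 50 mM Tris-HCl pH 7.4, counted by scintillation; percent inhibition calculated, reference ligand defining non-specific binding.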

[2] = molecular target: T2, Human neuropeptide Y (NPY-Y1) (Homo sapiens, UniProt P25929); test: Radioligand binding, human neuropeptide Y NPY-Y1 membranes, FlashPlate, [125I]-PYY; conditions: compound at 10 μM; for A9 radioligand binding, percentage inhibition / A9: inhibition of radioligand binding, human neuropeptide Y (NPY-Y1): [125I]-PYY
T2 construct: purchased Perkin Elmer Biosignal
T2 sequence (P25929 1-384): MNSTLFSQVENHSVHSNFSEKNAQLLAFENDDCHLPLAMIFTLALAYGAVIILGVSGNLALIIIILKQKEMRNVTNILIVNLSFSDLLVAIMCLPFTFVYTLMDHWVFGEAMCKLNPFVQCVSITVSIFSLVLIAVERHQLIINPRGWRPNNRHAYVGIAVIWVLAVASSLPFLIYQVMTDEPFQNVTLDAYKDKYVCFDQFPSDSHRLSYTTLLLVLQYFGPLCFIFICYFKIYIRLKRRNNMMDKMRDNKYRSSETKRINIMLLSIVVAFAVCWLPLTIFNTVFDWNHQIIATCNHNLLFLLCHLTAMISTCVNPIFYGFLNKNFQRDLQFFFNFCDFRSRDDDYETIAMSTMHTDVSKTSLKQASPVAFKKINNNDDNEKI
Summary of the method: (§2)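 Cloned human receptor membranes were coated onto FlashPlate wells and incubated with radioligand and compound (added from a 0.5 mM DMSO daughter plate) for 1 hour at room temperature in the dark. Scintillation counting gave percent inhibition, with DMSO defining total and reference ligand defining non-specific binding.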

[3] = molecular target: T3, Human μ-opioid (MOP) (Homo sapiens, UniProt P35372); test: Radioligand binding, human μ-opioid (MOP) membranes, FlashPlate, [3H]-Naloxone; conditions: compound at 10 μM; for A7 radioligand binding, percentage inhibition / A7: inhibition of radioligand binding, human μ-opioid (MOP): [3H]-Naloxone
T3 construct: purchased Perkin Elmer Biosignal
T3 sequence (P35372 whole entry): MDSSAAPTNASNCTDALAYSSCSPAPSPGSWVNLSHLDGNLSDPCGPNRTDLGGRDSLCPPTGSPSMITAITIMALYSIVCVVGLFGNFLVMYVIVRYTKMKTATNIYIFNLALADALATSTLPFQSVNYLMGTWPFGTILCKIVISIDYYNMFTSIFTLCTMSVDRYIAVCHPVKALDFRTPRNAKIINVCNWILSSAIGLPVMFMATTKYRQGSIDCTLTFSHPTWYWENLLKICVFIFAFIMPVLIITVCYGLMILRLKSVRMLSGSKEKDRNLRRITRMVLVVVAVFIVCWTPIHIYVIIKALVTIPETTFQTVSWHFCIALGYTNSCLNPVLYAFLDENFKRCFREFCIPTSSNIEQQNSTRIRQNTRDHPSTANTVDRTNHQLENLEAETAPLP
Summary of the method: as §2

[4] = molecular target: T4, Human opioid (ORL1) (Homo sapiens, UniProt P41146); test: Radioligand binding, human opioid ORL1 membranes, FlashPlate, [125I]-Nociceptin; conditions: compound at 10 μM; for A10 radioligand binding, percentage inhibition / A10: inhibition of radioligand binding, human opioid (ORL1): [125I]-Nociceptin
T4 construct: purchased Perkin Elmer Biosignal
T4 sequence (P41146 whole entry): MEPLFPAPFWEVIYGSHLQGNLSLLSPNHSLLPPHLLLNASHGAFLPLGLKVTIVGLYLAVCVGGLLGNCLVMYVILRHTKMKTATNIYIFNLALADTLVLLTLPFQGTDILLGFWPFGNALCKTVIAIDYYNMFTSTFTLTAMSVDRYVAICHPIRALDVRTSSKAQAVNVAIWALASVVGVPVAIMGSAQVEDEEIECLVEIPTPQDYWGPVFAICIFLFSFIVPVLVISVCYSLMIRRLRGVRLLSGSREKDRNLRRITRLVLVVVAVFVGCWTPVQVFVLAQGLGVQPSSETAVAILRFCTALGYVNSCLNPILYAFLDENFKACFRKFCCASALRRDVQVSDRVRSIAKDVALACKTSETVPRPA
Summary of the method: as §2

[5] = molecular target: T5, Human κ-Opioid (KOP) (Homo sapiens, UniProt P41145); test: Radioligand binding, human κ-opioid (KOP) membranes, filtration, [3H]-Diprenorphine; conditions: compound at 10 μM; for A2 radioligand binding, percentage inhibition / A2: inhibition of radioligand binding, human κ-opioid (KOP): [3H]-Diprenorphine
T5 construct: purchased Perkin Elmer Biosignal
T5 sequence (P41145 whole entry): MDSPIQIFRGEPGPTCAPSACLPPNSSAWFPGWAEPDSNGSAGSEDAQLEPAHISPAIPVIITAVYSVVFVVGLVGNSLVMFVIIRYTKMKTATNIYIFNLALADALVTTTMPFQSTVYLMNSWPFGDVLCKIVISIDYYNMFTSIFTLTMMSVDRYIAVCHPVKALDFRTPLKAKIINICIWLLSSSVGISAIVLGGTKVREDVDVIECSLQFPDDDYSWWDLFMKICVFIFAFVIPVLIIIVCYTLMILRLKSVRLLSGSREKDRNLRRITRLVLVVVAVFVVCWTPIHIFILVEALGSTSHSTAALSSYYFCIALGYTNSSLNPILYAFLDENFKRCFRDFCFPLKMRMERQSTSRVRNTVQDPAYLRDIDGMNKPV
Summary of the method: as §1

[6] = molecular target: T6, Human δ-opioid (DOP) (Homo sapiens, UniProt P41143); test: Radioligand binding, human δ-opioid (DOP) membranes, FlashPlate, [3H]-Bremazocine; conditions: compound at 10 μM; for A1 radioligand binding, percentage inhibition / A1: inhibition of radioligand binding, human δ-opioid (DOP): [3H]-Bremazocine
T6 construct: purchased Perkin Elmer Biosignal
T6 sequence (P41143 whole entry): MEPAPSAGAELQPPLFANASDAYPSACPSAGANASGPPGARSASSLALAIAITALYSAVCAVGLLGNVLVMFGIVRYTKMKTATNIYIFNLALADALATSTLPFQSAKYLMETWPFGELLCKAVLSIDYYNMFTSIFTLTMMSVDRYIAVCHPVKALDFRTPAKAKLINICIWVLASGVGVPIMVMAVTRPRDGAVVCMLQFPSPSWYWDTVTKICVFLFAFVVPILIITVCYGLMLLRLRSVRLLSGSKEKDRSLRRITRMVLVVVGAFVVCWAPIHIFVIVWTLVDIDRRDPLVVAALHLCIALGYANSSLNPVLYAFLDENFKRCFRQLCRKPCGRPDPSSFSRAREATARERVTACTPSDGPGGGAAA
Summary of the method: as §2

[7] = molecular target: T7, Human melanocortin (MC5) (Homo sapiens, UniProt P33032); test: Radioligand binding, human melanocortin MC5 membranes, FlashPlate, [125I]-NDP-αMSH; conditions: compound at 10 μM; for A5 radioligand binding, percentage inhibition / A5: inhibition of radioligand binding, human melanocortin (MC5): [125I]-NDP-αMSH
T7 construct: purchased Perkin Elmer Biosignal
T7 sequence (P33032 whole entry): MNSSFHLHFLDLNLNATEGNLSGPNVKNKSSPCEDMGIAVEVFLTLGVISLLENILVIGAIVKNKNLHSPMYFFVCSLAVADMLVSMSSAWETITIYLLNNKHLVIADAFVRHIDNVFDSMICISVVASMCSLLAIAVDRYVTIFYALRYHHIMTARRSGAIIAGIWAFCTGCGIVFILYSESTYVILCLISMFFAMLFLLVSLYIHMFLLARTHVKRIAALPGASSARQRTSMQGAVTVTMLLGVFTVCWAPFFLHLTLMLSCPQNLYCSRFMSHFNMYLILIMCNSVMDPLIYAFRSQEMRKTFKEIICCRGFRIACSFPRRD
Summary of the method: as §2

[8] = molecular target: T8, Human Melanocortin (MC3) (Homo sapiens, UniProt P41968); test: Radioligand binding, human melanocortin MC3 membranes, FlashPlate, [125I]-NDP-αMSH; conditions: compound at 10 μM; for A3 radioligand binding, percentage inhibition / A3: inhibition of radioligand binding, human melanocortin (MC3): [125I]-NDP-αMSH
T8 construct: purchased Perkin Elmer Biosignal
T8 sequence (P41968 whole entry): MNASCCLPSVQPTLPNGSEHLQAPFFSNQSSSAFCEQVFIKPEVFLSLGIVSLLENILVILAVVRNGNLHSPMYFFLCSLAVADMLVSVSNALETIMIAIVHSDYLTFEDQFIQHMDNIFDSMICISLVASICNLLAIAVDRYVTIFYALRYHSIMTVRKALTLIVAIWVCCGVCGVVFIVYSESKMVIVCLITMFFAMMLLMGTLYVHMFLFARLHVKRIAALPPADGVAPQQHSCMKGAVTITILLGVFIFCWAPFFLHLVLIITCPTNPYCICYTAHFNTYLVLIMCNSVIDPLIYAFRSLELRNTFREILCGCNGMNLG
Summary of the method: as §2

[9] = molecular target: T9, Human Melanocortin (MC4) (Homo sapiens, UniProt P32245); test: Radioligand binding, human melanocortin MC4 membranes, FlashPlate, [125I]-NDP-αMSH; conditions: compound at 10 μM; for A4 radioligand binding, percentage inhibition / A4: inhibition of radioligand binding, human melanocortin (MC4): [125I]-NDP-αMSH
T9 construct: purchased Perkin Elmer Biosignal
T9 sequence (P32245 whole entry): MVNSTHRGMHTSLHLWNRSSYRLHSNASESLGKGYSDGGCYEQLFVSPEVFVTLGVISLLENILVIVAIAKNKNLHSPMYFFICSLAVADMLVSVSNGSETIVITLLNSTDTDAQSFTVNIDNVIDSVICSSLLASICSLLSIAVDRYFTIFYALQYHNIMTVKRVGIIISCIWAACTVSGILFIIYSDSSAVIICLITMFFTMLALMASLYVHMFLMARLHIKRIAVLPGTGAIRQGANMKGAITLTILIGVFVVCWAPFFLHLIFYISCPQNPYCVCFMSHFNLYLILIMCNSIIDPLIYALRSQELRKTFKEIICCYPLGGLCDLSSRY
Summary of the method: as §2

[10] = molecular target: T10, Mouse urotensin (mUR2) (Mus musculus, UniProt Q8VIH9); test: Radioligand binding, mouse urotensin mUR2 membranes, FlashPlate, [125I]-Urotensin II; conditions: compound at 10 μM; for A11 radioligand binding, percentage inhibition / A11: inhibition of radioligand binding, mouse urotensin (mUR2): [125I]-Urotensin II
T10 construct: purchased Perkin Elmer Biosignal
T10 sequence (Q8VIH9 1-385): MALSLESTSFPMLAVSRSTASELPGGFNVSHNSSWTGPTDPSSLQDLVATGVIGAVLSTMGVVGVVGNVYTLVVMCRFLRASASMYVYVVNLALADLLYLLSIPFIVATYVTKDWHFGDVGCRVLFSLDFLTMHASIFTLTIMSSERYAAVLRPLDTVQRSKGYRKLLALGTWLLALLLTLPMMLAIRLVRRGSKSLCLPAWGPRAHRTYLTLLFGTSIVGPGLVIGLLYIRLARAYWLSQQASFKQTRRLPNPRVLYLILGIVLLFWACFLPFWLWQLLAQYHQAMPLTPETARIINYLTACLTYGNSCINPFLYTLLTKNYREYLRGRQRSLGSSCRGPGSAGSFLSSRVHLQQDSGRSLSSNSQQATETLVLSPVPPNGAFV
Summary of the method: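 Cloned mouse urotensin (mUR2) receptor membranes from Perkin Elmer Biosignal were immobilized in FlashPlate microplates using a proprietary coating. Each well got 19.5 μl buffer, then 0.5 μl of DMSO, reference ligand, or compound. Adding 5 μl of [125I]-Urotensin II, diluted to 5× final concentration in binding buffer, started binding. Plates were sealed with TopSeal-A and incubated 1 hour at room temperature in the dark. Wells were counted for 30 seconds each on a TopCount after a 60-second delay, and percentage inhibition was calculated.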

[11] = molecular target: T11, Human melanin-concentrating hormone (MCH1) (Homo sapiens, UniProt Q99705); test: Radioligand binding, human melanin-concentrating hormone MCH1 membranes, FlashPlate, [125I]-S36057; conditions: compound at 10 μM; for A6 radioligand binding, percentage inhibition / A6: inhibition of radioligand binding, human melanin-concentrating hormone (MCH1): [125I]-S36057
T11 construct: purchased Perkin Elmer Biosignal
T11 sequence (Q99705 whole entry): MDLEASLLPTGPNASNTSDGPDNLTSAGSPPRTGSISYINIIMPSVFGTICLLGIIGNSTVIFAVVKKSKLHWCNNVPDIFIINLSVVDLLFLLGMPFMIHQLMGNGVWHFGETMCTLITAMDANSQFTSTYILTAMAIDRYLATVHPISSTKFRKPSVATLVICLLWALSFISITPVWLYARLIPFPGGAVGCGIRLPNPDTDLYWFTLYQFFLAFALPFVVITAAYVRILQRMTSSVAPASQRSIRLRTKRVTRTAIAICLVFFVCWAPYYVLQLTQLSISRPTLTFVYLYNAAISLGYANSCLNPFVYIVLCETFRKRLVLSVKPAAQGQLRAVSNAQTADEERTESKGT
Summary of the method: as §2

T1 sequence (P25103 whole entry): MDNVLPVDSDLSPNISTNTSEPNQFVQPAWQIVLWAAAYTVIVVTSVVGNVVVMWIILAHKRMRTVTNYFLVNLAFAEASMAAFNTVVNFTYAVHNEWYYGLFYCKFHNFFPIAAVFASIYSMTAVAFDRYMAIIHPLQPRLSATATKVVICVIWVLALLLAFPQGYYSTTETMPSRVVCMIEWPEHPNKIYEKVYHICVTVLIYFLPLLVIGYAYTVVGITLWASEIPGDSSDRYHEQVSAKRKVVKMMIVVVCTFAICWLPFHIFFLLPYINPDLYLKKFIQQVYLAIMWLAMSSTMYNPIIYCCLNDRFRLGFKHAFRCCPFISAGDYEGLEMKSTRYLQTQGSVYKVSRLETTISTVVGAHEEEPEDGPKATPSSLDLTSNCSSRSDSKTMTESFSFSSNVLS

Row | Compound | A8 radioligand binding, percentage inhibition [1] | A9 radioligand binding, percentage inhibition [2] | A7 radioligand binding, percentage inhibition [3] | A10 radioligand binding, percentage inhibition [4] | A2 radioligand binding, percentage inhibition [5] | A1 radioligand binding, percentage inhibition [6] | A5 radioligand binding, percentage inhibition [7] | A3 radioligand binding, percentage inhibition [8] | A4 radioligand binding, percentage inhibition [9] | A11 radioligand binding, percentage inhibition [10] | A6 radioligand binding, percentage inhibition [11] | A8: inhibition of radioligand binding, human neurokinin (NK1) [1] | A9: inhibition of radioligand binding, human neuropeptide Y (NPY-Y1) [2] | A7: inhibition of radioligand binding, human μ-opioid (MOP) [3] | A10: inhibition of radioligand binding, human opioid (ORL1) [4] | A1: inhibition of radioligand binding, human δ-opioid (DOP) [6] | A11: inhibition of radioligand binding, mouse urotensin (mUR2) [10] | other results
1 | COC[C@H]1OC(OCc2ccc(Cl)cc2)[C@H](NC(=O)CNC(=N)N)[C@@H](OCc2cccc(O)c2)[C@@H]1O (stereo partly shown) [compound 137] | − (“−” indicates less than 50% inhibition at 10 μM) | − (“−” indicates less than 50% inhibition at 10 μM) | + (“+” indicates greater than 50% inhibition at 10 μM) | − (“−” indicates less than 50% inhibition at 10 μM) | − (“−” indicates less than 50% inhibition at 10 μM) | − (“−” indicates less than 50% inhibition at 10 μM) | + (“+” indicates greater than 50% inhibition at 10 μM) | − (“−” indicates less than 50% inhibition at 10 μM) | − (“−” indicates less than 50% inhibition at 10 μM) | − (“−” indicates less than 50% inhibition at 10 μM) | − (“−” indicates less than 50% inhibition at 10 μM) | – | – | – | – | – | – | –
2 | CSC1O[C@H](COCc2ccc3ccccc3c2)[C@@H](O)[C@@H](OCc2ccc(-c3ccccc3)cc2)[C@H]1NC(=O)CCN (stereo partly shown) [compound 297] | – | – | – | – | – | – | – | – | – | – | – | + (“+” indicates greater than 50% inhibition at 10 μM) | − (“−” indicates less than 50% inhibition at 10 μM) | − (“−” indicates less than 50% inhibition at 10 μM) | − (“−” indicates less than 50% inhibition at 10 μM) | − (“−” indicates less than 50% inhibition at 10 μM) | − (“−” indicates less than 50% inhibition at 10 μM) | A2: inhibition of radioligand binding, human κ-opioid (KOP) [5]: − (“−” indicates less than 50% inhibition at 10 μM); A5: inhibition of radioligand binding, human melanocortin (MC5) [7]: − (“−” indicates less than 50% inhibition at 10 μM); A3: inhibition of radioligand binding, human melanocortin (MC3) [8]: − (“−” indicates less than 50% inhibition at 10 μM); A4: inhibition of radioligand binding, human melanocortin (MC4) [9]: − (“−” indicates less than 50% inhibition at 10 μM); A6: inhibition of radioligand binding, human melanin-concentrating hormone (MCH1) [11]: − (“−” indicates less than 50% inhibition at 10 μM)
3 | CO[C@H]1[C@H](O)[C@@H](COCc2ccc3ccccc3c2)OC(OCc2cccc(O)c2)[C@@H]1NC(=O)CCCN (stereo partly shown) [compound 167] | + (“+” indicates greater than 50% inhibition at 10 μM) | − (“−” indicates less than 50% inhibition at 10 μM) | − (“−” indicates less than 50% inhibition at 10 μM) | − (“−” indicates less than 50% inhibition at 10 μM) | − (“−” indicates less than 50% inhibition at 10 μM) | − (“−” indicates less than 50% inhibition at 10 μM) | − (“−” indicates less than 50% inhibition at 10 μM) | − (“−” indicates less than 50% inhibition at 10 μM) | − (“−” indicates less than 50% inhibition at 10 μM) | − (“−” indicates less than 50% inhibition at 10 μM) | − (“−” indicates less than 50% inhibition at 10 μM) | – | – | – | – | – | – | –
4 | N=C(N)NCCC(=O)N[C@H]1C(OCc2ccc(Cl)cc2)O[C@H](COCc2ccc3ccccc3c2)[C@@H](O)[C@@H]1OCc1ccc2ccccc2c1 (stereo partly shown) [compound 528] | – | – | – | – | – | – | – | – | – | – | – | + (“+” indicates greater than 50% inhibition at 10 μM) | − (“−” indicates less than 50% inhibition at 10 μM) | − (“−” indicates less than 50% inhibition at 10 μM) | − (“−” indicates less than 50% inhibition at 10 μM) | − (“−” indicates less than 50% inhibition at 10 μM) | − (“−” indicates less than 50% inhibition at 10 μM) | A2: inhibition of radioligand binding, human κ-opioid (KOP) ([5]; 10 µM): − (“−” indicates less than 50% inhibition at 10 μM); A5: inhibition of radioligand binding, human melanocortin (MC5) ([7]; 10 µM): − (“−” indicates less than 50% inhibition at 10 μM); A3: inhibition of radioligand binding, human melanocortin (MC3) ([8]; 10 µM): − (“−” indicates less than 50% inhibition at 10 μM); A4: inhibition of radioligand binding, human melanocortin (MC4) ([9]; 10 µM): − (“−” indicates less than 50% inhibition at 10 μM); A6: inhibition of radioligand binding, human melanin-concentrating hormone (MCH1) ([11]; 10 µM): − (“−” indicates less than 50% inhibition at 10 μM)
5 | CO[C@H]1[C@H](O)[C@@H](COCc2ccc3ccccc3c2)OC(OCc2ccc(-c3ccccc3)cc2)[C@@H]1NC(=O)CCNC(=N)N (stereo partly shown) [compound 56] | – | – | – | – | – | – | – | – | – | – | – | – | – | – | – | – | – | A8 radioligand binding inhibition ([1]; human neurokinin NK1 membranes): + (“+” indicates greater than 50% inhibition at 10 μM); A9 radioligand binding inhibition ([2]; human NPY-Y1 membranes): − (“−” indicates less than 50% inhibition at 10 μM); A7 radioligand binding inhibition ([3]; human μ-opioid (MOP) membranes): + (“+” indicates greater than 50% inhibition at 10 μM); A10 radioligand binding inhibition ([4]; human ORL1 membranes): − (“−” indicates less than 50% inhibition at 10 μM); A2 radioligand binding inhibition ([5]; human κ-opioid (KOP) membranes): − (“−” indicates less than 50% inhibition at 10 μM); A1 radioligand binding inhibition ([6]; human δ-opioid (DOP) membranes): − (“−” indicates less than 50% inhibition at 10 μM); A5 radioligand binding inhibition ([7]; human melanocortin MC5 membranes): + (“+” indicates greater than 50% inhibition at 10 μM); A3 radioligand binding inhibition ([8]; human melanocortin MC3 membranes): − (“−” indicates less than 50% inhibition at 10 μM); A4 radioligand binding inhibition ([9]; human melanocortin MC4 membranes): − (“−” indicates less than 50% inhibition at 10 μM); A11 radioligand binding inhibition ([10]; mouse urotensin mUR2 membranes): − (“−” indicates less than 50% inhibition at 10 μM); A6 radioligand binding inhibition ([11]; human MCH1 membranes): − (“−” indicates less than 50% inhibition at 10 μM)

— patent US20080009418A1, “Selective Inhibitors” (Alchemia LTD., priority 2004, published 2008)
